The structures appear in SMILES notation.

The target of this assay is [Pyruvate dehydrogenase (acetyl-transferring)] kinase isozyme 1, mitochondrial (Homo sapiens, UniProt Q15118). Briefly: Binding affinity to pyruvate dehydrogenase kinase 1 (unknown origin) incubated for 90 mins by VER-00160364 probe based fluorescence polarization assay.
Sequence of [Pyruvate dehydrogenase (acetyl-transferring)] kinase isozyme 1, mitochondrial (Q15118 whole entry): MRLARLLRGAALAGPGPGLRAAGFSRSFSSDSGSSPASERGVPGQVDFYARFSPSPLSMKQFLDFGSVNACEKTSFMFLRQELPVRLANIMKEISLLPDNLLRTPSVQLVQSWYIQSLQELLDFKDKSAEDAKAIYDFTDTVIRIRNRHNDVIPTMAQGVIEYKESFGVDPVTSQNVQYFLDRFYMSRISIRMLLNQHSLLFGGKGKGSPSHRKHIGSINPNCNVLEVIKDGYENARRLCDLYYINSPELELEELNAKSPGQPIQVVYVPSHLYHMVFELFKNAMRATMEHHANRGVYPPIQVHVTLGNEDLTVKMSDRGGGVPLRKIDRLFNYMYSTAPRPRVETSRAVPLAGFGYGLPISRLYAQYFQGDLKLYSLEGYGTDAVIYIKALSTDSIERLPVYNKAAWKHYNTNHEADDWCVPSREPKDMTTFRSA
As to `Cc1nc(-c2ccc(N(Cc3cccnc3)C(=O)c3ccc(O)cc3O)cc2)c2ccccc2n1`, the IC50 worked out at 100 nM. This lies in the sub-micromolar range. Compound `O=C(c1ccc(O)cc1O)N(Cc1cccnc1)c1ccc(-c2ccc(Cl)cc2Cl)cc1` yielded an IC50 of 1000 nM. As for `CN(Cc1cccc2cccnc12)C(=O)c1ccc(N(Cc2cccnc2)C(=O)c2ccc(O)cc2O)cc1`, the IC50 was determined as 100 nM.

The compound `Cc1nccn1-c1ccc(-c2ccc(N(Cc3cccnc3)C(=O)c3ccc(O)cc3O)cc2)nn1` showed an IC50 of 100 nM. Next, `O=C(c1ccc(O)cc1O)N(Cc1cccnc1)c1ccc(-c2ccc(NC3CC3)nn2)cc1`: 1000 nM; `Nc1ccc(-c2ccc(N(Cc3cccnc3)C(=O)c3ccc(O)cc3O)cc2)nn1`: 1000 nM; `O=C(c1ccc(O)cc1O)N(Cc1cccnc1)c1ccc(-c2ccc(-n3ccnc3)nn2)cc1`: 1000 nM.

For `Cc1cc2cc(F)ccc2nc1-c1ccc(N(Cc2cccnc2)C(=O)c2ccc(O)cc2O)cc1`, the half-inhibitory concentration (IC50) was determined as 100 nM. This IC50 is about 10-fold lower than that of the compound before. With `CSc1nc(-c2ccc(N(Cc3cccnc3)C(=O)c3ccc(O)cc3O)cc2)c2cc[nH]c2n1`, the IC50 came to 100 nM. As to `N#Cc1cncnc1-c1ccc(N(Cc2cccnc2)C(=O)c2ccc(O)cc2O)cc1`, the IC50 was found to be 100 nM. `CCc1cc2ccccc2nc1-c1ccc(N(Cc2cccnc2)C(=O)c2ccc(O)cc2O)cc1` gave an IC50 of 100 nM. Compound `Cc1ncc(C)c(-c2ccc(N(Cc3cccnc3)C(=O)c3ccc(O)cc3O)cc2)n1` came in with an IC50 of 10 nM. This IC50 lies about 10-fold lower than the previous one. The compound `COc1ccc(-c2ccc(N(Cc3cccnc3)C(=O)c3ccc(O)cc3O)cc2)c(OC)c1` gave a 50% inhibitory concentration (IC50) of 1000 nM.

As for `COCCN(C)S(=O)(=O)c1cnc(-c2ccc(N(Cc3cccnc3)C(=O)c3ccc(O)cc3O)cc2)c(C)c1`, the IC50 was found to be 10 nM. In turn, `COc1ccc(-c2ccc(N(Cc3cccnc3)C(=O)c3ccc(O)cc3O)cc2)c(Cl)c1` came in with an IC50 of 1000 nM. The result for `COc1cc2ncnc(-c3ccc(N(Cc4cccnc4)C(=O)c4ccc(O)cc4O)cc3)c2cc1OC` reads 1000 nM. `O=C(NCc1ccc(Cl)cc1)c1ccc(N(Cc2cccnc2)C(=O)c2ccc(O)cc2O)cc1` showed an IC50 of 100 nM. Next, `Cc1ccc(C)c(-c2ccc(N(Cc3cccnc3)C(=O)c3ccc(O)cc3O)cc2)n1`: 1000 nM; `Cc1cc2ccc(F)cc2nc1-c1ccc(N(Cc2cccnc2)C(=O)c2ccc(O)cc2O)cc1`: 100 nM. The result for `Cc1cc(S(=O)(=O)NCc2ccncc2)cnc1-c1ccc(N(Cc2cccnc2)C(=O)c2ccc(O)cc2O)cc1` reads 10 nM; that for `CSc1nc2c(c(-c3ccc(N(Cc4cccnc4)C(=O)c4ccc(O)cc4O)cc3)n1)CCC2`, 100 nM; that for `CNc1nccc(-c2ccc(N(Cc3cccnc3)C(=O)c3ccc(O)cc3O)cc2)n1`, 100 nM. The result for `Cc1cnc(-c2ccc(N(Cc3cccnc3)C(=O)c3ccc(O)cc3O)cc2)c(C)n1` reads 10 nM. Take `N#Cc1cccc(-c2ccc(N(Cc3cccnc3)C(=O)c3ccc(O)cc3O)cc2)c1`: the half-maximal inhibitory concentration (IC50) is 1000 nM.

In turn, `O=C(c1ccc(O)cc1O)N(Cc1cccnc1)c1ccc(-c2ccc(N3CCCC3)nn2)cc1` came in with an IC50 of 100 nM.

Take `O=C(c1ccc(O)cc1O)N(Cc1cccnc1)c1ccc(-c2nc3ccc(Cl)cc3cc2CO)cc1`: the IC50 is 10 nM. Take `Cc1cc(S(=O)(=O)N2CC(F)(F)C2)cnc1-c1ccc(N(Cc2cccnc2)C(=O)c2ccc(O)cc2O)cc1`: the IC50 came out at 10 nM. `Cc1cc(S(=O)(=O)N2CCN(C)CC2)cnc1-c1ccc(N(Cc2cccnc2)C(=O)c2ccc(O)cc2O)cc1` registered an IC50 of 10 nM.

Turning to `Cc1cc(S(=O)(=O)NCc2ccccn2)cnc1-c1ccc(N(Cc2cccnc2)C(=O)c2ccc(O)cc2O)cc1`, the IC50 amounted to 10 nM. In turn, `CN(C)C(=O)c1ccc(N(Cc2cccnc2)C(=O)c2cc(Cl)c(O)cc2O)cc1` gave an IC50 of 10 nM. `Cc1cncnc1-c1ccc(N(Cc2cccnc2)C(=O)c2ccc(O)cc2O)cc1` gave an IC50 of 100 nM. `O=C(c1ccc(O)cc1O)N(Cc1cccnc1)c1ccc(-c2nc3ccccc3o2)cc1` returned an IC50 of 1000 nM.

Compound `Cc1nccnc1-c1ccc(N(Cc2cccnc2)C(=O)c2ccc(O)cc2O)cc1` yielded an IC50 of 100 nM. This IC50 lies about 10-fold lower than the previous one. In turn, `O=C(c1ccc(O)cc1O)N(Cc1cccnc1)c1ccc(-c2nncc3ccccc23)cc1` came in with an IC50 of 100 nM.

For the compound `CCOC(=O)c1nc(C)nc(-c2ccc(N(Cc3cccnc3)C(=O)c3ccc(O)cc3O)cc2)c1C`, the IC50 amounted to 100 nM. Next, `Cc1c(-c2ccc(N(Cc3cccnc3)C(=O)c3ccc(O)cc3O)cc2)ccc2[nH]ncc12`: 1000 nM; `O=C(c1ccc(O)cc1O)N(Cc1cccnc1)c1ccc(-c2ncnc3cccc(F)c23)cc1`: 10 nM. The result for `CC(=O)N1CCN(S(=O)(=O)c2cnc(-c3ccc(N(Cc4cccnc4)C(=O)c4ccc(O)cc4O)cc3)c(C)c2)CC1` reads 10 nM; that for `COc1cnc(-c2ccc(N(Cc3cccnc3)C(=O)c3ccc(O)cc3O)cc2)cc1OC`, 100 nM; that for `CCc1nccnc1-c1ccc(N(Cc2cccnc2)C(=O)c2ccc(O)cc2O)cc1`, 100 nM. Compound `CC(=O)NCCNS(=O)(=O)c1cnc(-c2ccc(N(Cc3cccnc3)C(=O)c3ccc(O)cc3O)cc2)c(C)c1` returned an IC50 of 10 nM. In the case of `O=C(c1ccc(O)cc1O)N(Cc1cccnc1)c1ccc(-c2ncccc2CO)cc1`, the IC50 turned out to be 100 nM.

Compound `Cc1cn(-c2ccc(-c3ccc(N(Cc4cccnc4)C(=O)c4ccc(O)cc4O)cc3)nn2)cn1` displayed an IC50 of 100 nM. The result for `CCOc1ccc2nc(-c3ccc(N(Cc4cccnc4)C(=O)c4ccc(O)cc4O)cc3)c(C)cc2c1` reads 100 nM; that for `CCOC(=O)c1nc(-c2ccc(N(Cc3cccnc3)C(=O)c3ccc(O)cc3O)cc2)c2ccccc2n1`, 100 nM. `NC(=O)c1nc(-c2ccc(N(Cc3cccnc3)C(=O)c3ccc(O)cc3O)cc2)c2ccccc2n1` came in with an IC50 of 100 nM. `O=C(c1ccc(O)cc1O)N(Cc1cccnc1)c1ccc(-c2nc3ccccc3cc2CO)cc1`: the IC50 is 100 nM. `COc1ccc(CN(C)C(=O)c2ccc(N(Cc3cccnc3)C(=O)c3cc(Cl)c(O)cc3O)cc2)cc1` had an IC50 of 10 nM. The result for `CN(C)C(=O)c1ccc(N(Cc2cccnc2)C(=O)c2ccc(O)cc2O)cc1` reads 100 nM; that for `CCNc1cc(-c2ccc(N(Cc3cccnc3)C(=O)c3ccc(O)cc3O)cc2)ncn1`, 1000 nM. Next, `O=C(c1ccc(O)cc1O)N(Cc1cccnc1)c1ccc(-c2nc3ccccc3nc2C(F)(F)F)cc1`: 100 nM. Next, `O=C(c1ccc(O)cc1O)N(Cc1cccnc1)c1ccc(-c2nc(C(F)(F)F)nc3ccccc23)cc1`: 100 nM; `Cc1cc(-c2ccc(N(Cc3cccnc3)C(=O)c3ccc(O)cc3O)cc2)nnc1Cl`: 1000 nM.

`O=C(c1ccc(O)cc1O)N(Cc1cccnc1)c1ccc(-c2ccccc2Cl)cc1` yielded an IC50 of 1000 nM. The compound `Cc1cc2cccc(C)c2nc1-c1ccc(N(Cc2cccnc2)C(=O)c2ccc(O)cc2O)cc1` returned an IC50 of 1000 nM. Compound `Cc1cc(S(=O)(=O)N2CCCCC2)cnc1-c1ccc(N(Cc2cccnc2)C(=O)c2ccc(O)cc2O)cc1` gave an IC50 of 10 nM. On to `O=C(c1ccc(O)cc1O)N(Cc1cccnc1)c1ccc(-c2cnc3ccccc3n2)cc1`, for which the IC50 amounted to 1000 nM. This IC50 lies about 100-fold higher than the previous one.

Regarding `O=C(c1ccc(O)cc1O)N(Cc1cccnc1)c1ccc(-c2ccc(Cl)nc2)cc1`, the IC50 worked out at 1000 nM. The compound `O=C(c1ccc(O)cc1O)N(Cc1cccnc1)c1ccc(-c2ccncc2C(F)(F)F)cc1` came in with an IC50 of 100 nM. In turn, `Cc1cc(S(=O)(=O)N2CCOCC2)cnc1-c1ccc(N(Cc2cccnc2)C(=O)c2ccc(O)cc2O)cc1` displayed an IC50 of 10 nM. Compared with the last compound, the IC50 is about 10-fold lower. Compound `CCCc1cncnc1-c1ccc(N(Cc2cccnc2)C(=O)c2ccc(O)cc2O)cc1` displayed an IC50 of 100 nM.

The compound `Cc1ccc(-c2ccc(N(Cc3cccnc3)C(=O)c3ccc(O)cc3O)cc2)c(Cl)c1` displayed an IC50 of 1000 nM. The result for `Cc1cc(S(=O)(=O)N2CCC(F)(F)CC2)cnc1-c1ccc(N(Cc2cccnc2)C(=O)c2ccc(O)cc2O)cc1` reads 10 nM.

`Cc1cc(S(=O)(=O)NCc2cccnc2)cnc1-c1ccc(N(Cc2cccnc2)C(=O)c2ccc(O)cc2O)cc1` came in with an IC50 of 10 nM.

For the compound `CNS(=O)(=O)c1cnc(-c2ccc(N(Cc3cccnc3)C(=O)c3ccc(O)cc3O)cc2)c(C)c1`, the IC50 was determined as 10 nM. This lies in the double-digit nanomolar range. As to `O=C(c1ccc(O)cc1O)N(Cc1cccnc1)c1ccc(-c2nc(-c3ccccc3)nc3ccccc23)cc1`, the IC50 turned out to be 1000 nM. The result for `Cc1cc2cc(Cl)ccc2nc1-c1ccc(N(Cc2cccnc2)C(=O)c2ccc(O)cc2O)cc1` reads 100 nM; that for `Cc1cc(-c2ccc(N(Cc3cccnc3)C(=O)c3ccc(O)cc3O)cc2)cnc1Cl`, 1000 nM; that for `COc1ccccc1-c1ccc(N(Cc2cccnc2)C(=O)c2ccc(O)cc2O)cc1`, 1000 nM. Take `O=C(c1ccc(O)cc1O)N(Cc1cccnc1)c1ccc(-c2ccc(N3CCOCC3)nn2)cc1`: the 50% inhibitory concentration (IC50) was 1000 nM. The compound `CNc1nnc(-c2ccc(N(Cc3cccnc3)C(=O)c3ccc(O)cc3O)cc2)c2ccccc12` returned a half-inhibitory concentration (IC50) of 100 nM. Regarding `O=C(c1ccc(O)cc1O)N(Cc1cccnc1)c1ccc(-c2nc(-c3ccsc3)nc3ccccc23)cc1`, the half-maximal inhibitory concentration (IC50) was found to be 1000 nM. Next, `O=C(c1ccc(O)cc1O)N(Cc1cccnc1)c1ccc(-c2nc3cc(Cl)ccc3o2)cc1`: 1000 nM; `CC(=O)Nc1ccc(-c2ccc(N(Cc3cccnc3)C(=O)c3ccc(O)cc3O)cc2)c(C)c1`: 100 nM. For the compound `Cc1cc(Cl)nnc1-c1ccc(N(Cc2cccnc2)C(=O)c2ccc(O)cc2O)cc1`, the IC50 stood at 10 nM.

Compound `O=C(c1ccc(O)cc1O)N(Cc1cccnc1)c1ccc(-c2ncnc3ccc(Cl)cc23)cc1` had an IC50 of 100 nM. On to `COc1ccc2nc(-c3ccc(N(Cc4cccnc4)C(=O)c4ccc(O)cc4O)cc3)c(C)cc2c1`, for which the IC50 came to 100 nM. In turn, `Cc1cc(S(=O)(=O)NCCN(C)C)cnc1-c1ccc(N(Cc2cccnc2)C(=O)c2ccc(O)cc2O)cc1` displayed an IC50 of 100 nM. That is a sub-micromolar value. As for `Cc1c(Cl)ncc2cc(-c3ccc(N(Cc4cccnc4)C(=O)c4ccc(O)cc4O)cc3)ccc12`, the IC50 worked out at 1000 nM. Compound `Cc1cc(S(=O)(=O)NCCCC(N)=O)cnc1-c1ccc(N(Cc2cccnc2)C(=O)c2ccc(O)cc2O)cc1` returned an IC50 of 10 nM. Compound `O=C(c1ccc(O)cc1O)N(Cc1cccnc1)c1ccc(-c2cc3cncnc3[nH]2)cc1` came in with an IC50 of 1000 nM.

The values above are taken from ChEMBL document CHEMBL3727364, “Resorcinol n-aryl amide compounds, for use as pyruvate dehydrogenase kinase inhibitors” (2015).
